System: platelet aggregation
Experiment: Test for platelet aggregation-inhibiting activity of rabbit (PAF-induced aggregation in platelet rich plasma)
Format: cell-based
Set-up: dose or concentration left out as unconfirmed
Details: rabbit PRP, 37°C, 10 minutes incubation, aggregation by PAF (10 μl); test compound concentration not given
Description: 2. Test for platelet aggregation-inhibiting activity of rabit
A blood of a rabbit (Japanese white; male; 2.5-3.0 kg) was exsanguinated from a carotid of the rabbit, and nine parts of the blood were mixed with one part of a 3.8% aqueous solution of sodium citrate. The mixture was centrifuged at 1100 rpm at 20°C. for 15 minutes. The upper layer is a platelet rich plasma (PRP), and the lower layer was centrifuged at 2500 rpm at 20° C. for 10 minutes, so that a platelet poor plasma (PPP) was obtained.
10 μl of a solution of the compound to be tested was added to 200 μl of PRP, and the mixture was subjected to incubation at 37°C. for 10 minutes. To the mixture was added 10 μl of a platelet activating factor (PAF)(10 mg/ml). The agglutination was measured by Agricometer (NKK, PAT-4A).

SMILES | Platelet Aggregation-Inhibiting Activity
COC(=O)C1=C(C)NC(C)=C(C(=O)N[C@H](C(=O)OC(C)(C)C)C(C)C)C1c1cccc([N+](=O)[O-])c1 (single isomer, unassigned) [1 (Compound a)] | 42.8%
COC(=O)C1=C(C)NC(C)=C(C(=O)N[C@@H](C(=O)OC(C)(C)C)C(C)C)C1c1cccc([N+](=O)[O-])c1 (single isomer, unassigned) [2 (Compound a)] | 25.5%
COC(=O)C1=C(C)NC(C)=C(C(=O)N[C@H](C(=O)OC(C)(C)C)C(C)C)C1c1ccccc1Cl (single isomer, unassigned) [7 (Compound a)] | 54.1%
COC(=O)C1=C(C)NC(C)=C(C(=O)N[C@H](C(=O)OC(C)(C)C)C(C)C)C1c1ccccc1F (single isomer, unassigned) [13 (Compound a)] | 37.7%
COC(=O)C1=C(C)NC(C)=C(C(=O)N[C@H](C(=O)OC(C)(C)C)C(C)C)C1c1cccc(Cl)c1 (single isomer, unassigned) [18 (Compound a)] | 33.8%
COC(=O)C1=C(C)NC(C)=C(C(=O)N[C@H](C(=O)OC(C)(C)C)C(C)C)C1c1cccc(F)c1 (single isomer, unassigned) [19 (Compound a)] | 35.4%
COC(=O)C1=C(C)NC(C)=C(C(=O)N[C@H](C(=O)OC(C)(C)C)C(C)C)C1c1cccc(C#N)c1 (single isomer, unassigned) [22 (Compound a)] | 20.2%
COC(=O)C1=C(C)NC(C)=C(C(=O)N[C@H](C(=O)OC(C)(C)C)C(C)C)C1c1ccccc1 (single isomer, unassigned) [24 (Compound a)] | 24.3%
COC(=O)C1=C(C)NC(C)=C(C(=O)N[C@H](C(=O)OC(C)(C)C)C(C)C)C1c1ccccc1[N+](=O)[O-] (single isomer, unassigned) [27 (Compound a)] | 33.3%
COCCOC(=O)C1=C(C)NC(C)=C(C(=O)N[C@H](C(=O)OC(C)(C)C)C(C)C)C1c1cccc([N+](=O)[O-])c1 (single isomer, unassigned) [50 (Compound a)] | 23.5%
CC1=C(C(=O)NCC(=O)OC(C)(C)C)C(c2cccc([N+](=O)[O-])c2)C(C(=O)N[C@H](C(=O)OC(C)(C)C)C(C)C)=C(C)N1 (single isomer, unassigned) [52 (Compound a)] | 29.2%
COC(=O)C1=C(C)NC(C)=C(C(=O)N[C@@H](C(=O)OC(C)(C)C)C(C)C)C1c1cccc([N+](=O)[O-])c1 (some centres unmarked) [2 (Compound b)] | 98.2%
COC(=O)C1=C(C)NC(C)=C(C(=O)NCC(=O)OC(C)(C)C)C1c1cccc([N+](=O)[O-])c1 (centres unmarked) [Example 3, t-butyl 2-[N-[1,4-dihydro-2,6-dimethyl-5-methoxycarbonyl-4-(3-nitrophenyl)pyridine-3-carbonyl]amino]acetate] | 100%
COC(=O)C1=C(C)NC(C)=C(C(=O)NCC(=O)OC(C)(C)C)C1c1ccccc1Cl (centres unmarked) [Example 8, t-butyl 2-[N-[1,4-dihydro-2,6-dimethyl-5-methoxycarbonyl-4-(2-chlorophenyl)pyridine-3-carbonyl]-amino]acetate] | 39.1%
COC(=O)C1=C(C)NC(C)=C(C(=O)N[C@@H](C)C(=O)OC(C)(C)C)C1c1ccccc1Cl (stereo partly drawn) [Example 9, t-butyl 2-(S)-[N-[1,4-dihydro-2,6-dimethyl-5-methoxycarbonyl-4-(2-chlorophenyl)pyridine-3-carbonyl]amino]propionate] | 29.8%
COC(=O)C1=C(C)NC(C)=C(C(=O)N[C@H](C(=O)OC(C)(C)C)C(C)C)C1c1cccc(OC)c1 (stereo partly drawn) [Example 23, t-butyl 2-(S)-[N-[1,4-dihydro-2,6-dimethyl-5-methoxycarbonyl-4-(3-methoxyphenyl)pyridine-3-carbonyl]-amino]-3-methylbutylate] | 33.6%
COC(=O)C1=C(C)NC(C)=C(C(=O)NCC(=O)OC(C)(C)C)C1c1cccc(Cl)c1 (centres unmarked) [Example 32, t-butyl 2-[N-[1,4-dihydro-2,6-dimethyl-5-methoxycarbonyl-4-(3-chlorophenyl)pyridine-3-carbonyl]-amino]acetate] | 100%
COC(=O)C1=C(C)NC(C)=C(C(=O)NCC(=O)OC(C)(C)C)C1c1ccccc1C#N (centres unmarked) [Example 33, t-butyl 2-[N-[1,4-dihydro-2,6-dimethyl-5-methoxycarbonyl-4-(2-cyanophenyl)pyridine-3-carbonyl]-amino]acetate] | 94.2%
COC(=O)C1=C(C)NC(C)=C(C(=O)NCC(=O)OC(C)(C)C)C1c1cccc(C#N)c1 (centres unmarked) [Example 34, t-butyl 2-[N-[1,4-dihydro-2,6-dimethyl-5-methoxycarbonyl-4-(3-cyanophenyl)pyridine-3-carbonyl]-amino]acetate] | 100%
COC(=O)C1=C(C)NC(C)=C(C(=O)NCC(=O)OC(C)(C)C)C1c1cccc(C)c1 (centres unmarked) [Example 35, t-butyl 2-[N-[1,4-dihydro-2,6-dimethyl-5-methoxycarbonyl-4-(3-methylphenyl)pyridine-3-carbonyl]-amino]acetate] | 32.3%
CCOC(=O)C1=C(C)NC(C)=C(C(=O)NCC(=O)OC(C)(C)C)C1c1cccc([N+](=O)[O-])c1 (centres unmarked) [Example 36, t-butyl 2-[N-[1,4-dihydro-2,6-dimethyl-5-ethoxycarbonyl-4-(3-nitrophenyl)pyridine-3-carbonyl]-amino]acetate] | 100%
CC1=C(C(=O)NCC(=O)OC(C)(C)C)C(c2cccc([N+](=O)[O-])c2)C(C(=O)OC(C)C)=C(C)N1 (centres unmarked) [Example 37, t-butyl 2-[N-[1,4-dihydro-2,6-dimethyl-5-isopropyloxycarbonyl-4-(3-nitrophenyl)pyridine-3-carbonyl]amino]acetate] | 100%
COCCOC(=O)C1=C(C)NC(C)=C(C(=O)NCC(=O)OC(C)(C)C)C1c1cccc([N+](=O)[O-])c1 (centres unmarked) [Example 38, t-butyl 2-[N-[1,4-dihydro-2,6-dimethyl-5-(2-methoxyethyloxycarbonyl)-4-(3-nitrophenyl)pyridine-3-carbonyl]amino]acetate] | 100%
COC(=O)C1=C(C)NC(C)=C(C(=O)NCC(=O)OC(C)(C)C)C1c1ccccc1C (centres unmarked) [Example 47, t-butyl 2-[N-[1,4-dihydro-2,6-dimethyl-5-methoxycarbonyl-4-(2-methylphenyl)pyridine-3-carbonyl]-amino]acetate] | 32.7%
CCOC(=O)C1=C(C)NC(C)=C(C(=O)N[C@H](C(=O)OC(C)(C)C)C(C)C)C1c1cccc([N+](=O)[O-])c1 (stereo partly drawn) [Example 48, t-butyl 2-(S)-[N-[1,4-dihydro-2,6-dimethyl-5-ethoxycarbonyl-4-(3-nitrophenyl)pyridine-3-carbonyl]amino]-3-methylbutylate] | 41.5%
CC1=C(C(=O)N[C@H](C(=O)OC(C)(C)C)C(C)C)C(c2cccc([N+](=O)[O-])c2)C(C(=O)OC(C)C)=C(C)N1 (some centres unmarked) [Example 49] | 38.9%

From US5644059A, “1,4-dihydropyridine derivatives and methods of producing the same” (Fujirebio Inc., priority 1990, dated 1997)
